# Target: PcVHA-a (vacuolar H+-ATPase subunit a; Pc106526)
# Assay: microscale thermophoresis with lysate of mCherry-fusion transformants
# Format: binding, Phytophthora capsici
# Conditions: 25 °C; 20% MST power; total protein lysate; mCherry-only control
smiles,measurement,value
O=C(NCc1ncc(C(F)(F)F)cc1Cl)c1c(Cl)cccc1Cl [fluopicolide],Kd,17.9 µM

# Source: doi:10.1101/2023.04.22.537907v1 (biorxiv, 2023)
